Experimental data from patent US9694010B2, “Therapeutic formulation and methods of treatment” (MacuCLEAR, Inc., priority 2012, dated 2017).
Where a name gives a salt, the structure may show the parent alone. Read-outs that look alike come from different tables or passages of the source.

What was measured:
[1] = Description: Choroidal blood flow, velocity and volume were assessed following the first dosing of test material on each day. […] Measurements were made using a Laser Doppler Flowmetry device, which is a state-of-the-art, non-invasive and quantitative approach for visualizing and measuring subfoveal choroidal blood flow.
There was a trend of increased mean choroidal blood volume and velocity values in hydralazine hydrochloride-treated eyes, which peaked approximately 2 hours after topical ocular dosing on day 1 and returned to baseline values approximately 4 hours after dosing (i.e., 2 hours later). […] By contrast, in normal/healthy subjects both mean values and associated standard deviations (SDs) remained low at all time points on day 1. • Odds ratio analyses of the choroidal blood flow outcomes between the AMD and Normal groups for day 1 were evaluated.

[2] = all subjects
Source text: Subjects in the dry AMD group had evidence of small and intermediate drusen, minimal or no pigment abnormalities in the macula (i.e., risk factor 2 on the AREDS Simplified Grading Scale), and a Snellen equivalent best corrected visual acuity (BCVA) equal to or better than 20/100.
The patients received 1 drop of test material in one eye and vehicle control in the contra-lateral eye. The patients administered the first dose of each day in the clinical setting and self-administered the remaining two doses of the day at prescribed time points.
On days 2 and 3, the evaluations were after the first two time-points. The 7th dose was administered in the morning on day 3. Seven days after the final dose, patients were contacted via telephone to evaluate any post study adverse events or issues.

[3] = 25° C., pH 3.5, cationic form; obtained by extrapolation
Source text: In one embodiment, the hydralazine for use in the formulation is a hydralazine salt such as hydralazine hydrochloride.

rabbit eye = experiment: 28-day repeat dose ocular toxicity; assay type: in vivo, Dutch Belted rabbits
Description: Hydralazine hydrochloride ophthalmic solutions were prepared essentially as described in Example 1 at concentrations of 0.0% (vehicle), 0.5% hydralazine hydrochloride, 1.0% hydralazine hydrochloride, and 2.0% hydralazine hydrochloride. The formulation, vehicle or control was administered daily for 28 days to the designated eye of forty Dutch Belted rabbits (5 males and 5 females per group) as shown in Table 2. […]
A modified Hackett and McDonald microscopic ocular grading system (Hackett 1996) was applied to ocular findings following the use of a slit-lamp biomicroscope, which included insertion of a blue filter to assess for fluorescein dye retention. For any evaluated microscopic ocular examination parameter, there were no statistically significant differences, in either male or female rabbits, between Group 1 and Groups 2-4 during the pre dose or Day 29 study measurement periods.
Mean tonometry (Tono-pen; Reichert Ophthalmic Instruments, Depew, N.Y.) readings of IOP in control and test rabbits pre-dose and on Day 29 were between 15-25 mmHg, which is within the normal physiologic range. […]

ARPE-19 cells [4] = experiment: tBHP-induced toxicity, MTT assay; settings: 24 hours; for cell viability (maximum protection): 100 μg/mL of hydralazine, P<0.001
Description: (§1) The human RPE cell line ARPE-19 (ATCC; Manassas, Va.) was cultured in Dulbecco's Modified Essential Medium (DMEM) supplemented with 10% fetal bovine serum, 50 units/mL penicillin-streptomycin and 2.5 mM glutamine at 37° incubation with 5% CO2. The cell line was not transformed and had structure and function properties characteristic of RPE in vivo. The cells were seeded into 96-well plates, and subconfluent cell monolayers were studied within 3 to 10 passages. Before starting the experimental procedures, the medium was removed and replaced with phenol red-free low-glucose DMEM supplemented with 1% calf serum, 0.06% glutamine, and 1% penicillin-streptomycin.
(§2) The cells were used for experiments when they reached 80% confluence to prevent contact inhibition.
(§3) After the 24-hour exposure, the MTT reagent solution (5 mg/mL) was added to each well in a ratio of 1:10 MTT reagent:culture medium volume. The cultures were incubated with the MTT reagent for 3 hours at 37° C. At the end of incubation, the MTT solution was removed, and 0.1 mL of dimethyl sulfoxide (DMSO) was added to each well to solubilize the purple formazan product. The proportion of viable cells was determined by measuring the optical density (OD) of each sample at 570 nm (A570) using a SpectraCount plate reader (Packard BioScience, Meridan, Conn.). The relationship between the OD readings in the MTT colorimetric assay and the exact cell number was determined by seeding cells at identical densities and then performing the MTT assay and manual hemocytometer cell counts on parallel replicate cultures. Trypan blue was added to the hemocytometer cultures so that only viable, dye-excluding cells were counted. This approach enabled the establishment of a standard curve for A570 versus cell number.
(§4) All data were presented as mean±standard error. A nonpaired Student t test was performed to analyze the significance between 2 means at a certain time point. The differences were considered significant at P<0.05. Results for nitric oxide measurements were expressed in μM nitrite and nitrate per 1×10^6 cells.

ARPE-19 cells [5] = settings: 24 hours; for cell viability (maximum protection): P<0.001
Description: as §1, §2, §3, §4

ARPE-19 cells [6] = settings: NaN3 0.1-100 mM, hydralazine 1, 3, 10, 30, 100 μg/mL
Description: RPE cells were washed and replaced with fresh DMEM-F12 medium containing various concentrations of NaN3 (0.1 mM-100 mM). […] Reactions were stopped by washing out the medium.

[7] = cited from earlier work; for systemic bioavailability: gastrointestinal absorption
ARPE-19 cells [8] = settings: 1% O2, 1 μg/mL of hydralazine, P<0.001
Description: In vitro hypoxia treatment was carried out using a ProOx hypoxia system. […] In hypoxia, oxygen concentrations of 1% O2 and 5% CO2 were maintained using a temperature- and humidity-controlled environmental C-chamber by O2 and CO2 controllers (ProOx Model 110 and ProCO2 Model 120; BioSpherix Ltd., Redfield, N.Y.) with N2 and CO2 gas sources. Reactions were stopped by washing out the medium, and 5 mg/mL MTT at a dilution of 1:10 based on the volume of culture medium was added for 3 hours at 37° C. At the end of incubation, the MTT solution was removed, and the cells were dissolved in 0.1 mL/well DMSO. The proportion viable cells were determined by measuring the OD of each sample at 570 nm using a SpectraCount plate reader (Packard BioScience, Meridan, Conn.).

[9] = test system: Human Umbilical Vein Endothelial Cells (HUVEC); experiment: In vitro tube formation; settings: 100 μg/ml, 48 hours

For `NNc1nncc2ccccc12` [hydralazine hydrochloride, Hydralazine hydrochloride], the “odds ratio, choroidal blood volume outcome, AMD vs Normal group” value ([1]; day 1, 60 minute time point (p=0.337)) was 0.22, the “odds ratio, choroidal blood volume outcome, AMD vs Normal group” value ([1]; day 1, 120 minute time point (p=0.106)) was 6.67 and the “time of peak of mean choroidal blood volume and velocity” value ([1]; day 1, after topical ocular dosing, back to baseline approximately 4 hours after dosing) was “approximately 2 hours”. For the same compound, the “choroidal blood flow, mean scores” value ([1]; treated eyes in AMD subjects) was “trend towards improved mean scores”, the “average time to resolution of ocular hyperemia” value ([2]; range 1 to 4 days) was 1.85 days and the “ocular hyperemia, treated eyes” value ([2]; hydralazine hydrochloride-treated eyes, 1 vehicle-treated eye) was 21 eyes. For the same compound, the “rate constant (time with less than a 10% loss)” value [3] was 1.5 years, the dose-related toxicologic changes (rabbit eye; 28 days of daily topical ocular treatment, 0.5-2.0%, 40 μL) was “did not result in the development of significant doserelated toxicologic changes” and the ocular histopathology (rabbit eye; daily application of up to 2.0% for 28 days) was “did not result in the development of ocular pathology, inflammation, degeneration, or histologic evidence of toxicity”.
For `CC(C)(C)OO` [tBHP, Tert-Butyl hydroperoxide], the cell viability (ARPE-19 cells [4]; 0.01 mM tBHP alone) was 89.90%±2.80% and the cell viability (ARPE-19 cells [4]; 0.03 mM tBHP alone) was 55.80%±4.08%.
In the case of `OO` [Formulation H2O2, hydrogen peroxide], the cell viability (ARPE-19 cells [5]; 0.3 mM H2O2 alone) is reported as 48.74%±2.40% and the cell viability (ARPE-19 cells [5]; 1.0 mM H2O2 alone) is reported as 41.28%±0.80%.
In the case of `NNc1nncc2ccccc12` [hydralazine], the “effect on NaN3 chemically-induced hypoxia (viable cells)” value (ARPE-19 cells [6]) is reported as “no significant effect”, the “cell viability (maximum protection)” value (ARPE-19 cells [5]; insult 0.3 mM H2O2 (second statement), 30 μg/mL of hydralazine) is reported as 68.04%±0.67% and the “cell viability (maximum protection)” value (ARPE-19 cells [5]; insult 0.3 mM H2O2, 30 μg/mL of hydralazine) is reported as 74.30% ±0.80%. For the same compound, the systemic clearance ([7]; exceeds hepatic blood flow) was 50 mL/min/kg, the systemic bioavailability ([7]; fast acetylators) was 16% and the systemic bioavailability ([7]; slow acetylators) was 35%. For the same compound, the plasma half-life ([7]; in vivo) was 3 to 7 h, the “time of peak concentration in plasma and maximal hypotensive effect” value ([7]; orally administered) was 30 to 120 min and the “cell viability (maximum protection)” value (ARPE-19 cells [4]; insult 0.01 mM tBHP) was 109.99%±2.41%. The “cell viability (maximum protection)” value (ARPE-19 cells [4]; insult 0.03 mM tBHP) was 100.84%±13.00%, the “cell viability (maximum reversion)” value (ARPE-19 cells [8]; 48 hours) was 101.21%±0.54% and the “cell viability (maximum reversion)” value (ARPE-19 cells [8]; 72 hours) was 103.55%±1.75%. The “effect on HUVEC” value [9] was “caused apoptosis”.
